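1) Cells in 96-well plates. 2) Compound, 48 h, 5 concentrations. 3) Linear interpolation between surrounding doses. 4) Unreached endpoint = highest concentration. GI50 marks 50% less growth.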 The source made the active and inactive calls. Cut-off read from the data, not from the text of the source: active = GI50 up to about 1.1 µM and inactive = higher.
What was measured:
Assay in all cases: inhibition of tumour cell growth, NCI panel, 48 h
786-0 = system: 786-0
NCI-H522 = system: NCI-H522
LOX IMVI = system: LOX IMVI
HCT-15 = system: HCT-15
SNB-78 = system: SNB-78
XF498 = system: XF498
A498 = system: A498
NCI-H23 = system: NCI-H23
SK-MEL-28 = system: SK-MEL-28
HCC 2998 = system: HCC 2998
U-251 = system: U-251
OVCAR-4 = system: OVCAR-4
KM12 = system: KM12
HOP-92 = system: HOP-92
RPMI-8226 = system: RPMI-8226
HOP-62 = system: HOP-62
MOLT-4 = system: MOLT-4
UACC-257 = system: UACC-257
HL-60 = system: HL-60
RXF 393 = system: RXF 393
HCT-116 = system: HCT-116
KM-20L2 = system: KM-20L2
SK-MEL-5 = system: SK-MEL-5
NCI-H460 = system: NCI-H460
DLD-1 = system: DLD-1
M14 = system: M14
SNB-19 = system: SNB-19
CAKI-1 = system: CAKI-1
RXF 631 = system: RXF 631
ACHN = system: ACHN
K562 = system: K562
EKVX = system: EKVX
SN12C = system: SN12C
SF-295 = system: SF-295
A549 = system: A549
OVCAR-5 = system: OVCAR-5
SK-OV-3 = system: SK-OV-3
DMS-114 = system: DMS-114
TK-10 = system: TK-10
SNB-75 = system: SNB-75
UO-31 = system: UO-31
Malme-3M = system: Malme-3M
SF-539 = system: SF-539
CCRF-CEM = system: CCRF-CEM
NCI-H226 = system: NCI-H226
OVCAR-3 = system: OVCAR-3
HT-29 = system: HT-29
SW-620 = system: SW-620
SF-268 = system: SF-268
COLO 205 = system: COLO 205
OVCAR-8 = system: OVCAR-8
DMS-273 = system: DMS-273
IGROV-1 = system: IGROV-1
LXFL 529 = system: LXFL 529
UACC-62 = system: UACC-62
SK-MEL-2 = system: SK-MEL-2
HOP-18 = system: HOP-18
M19-MEL = system: M19-MEL

Measured: GI50

COC(=O)C1=C(O)c2cc(OC)c(OC)c(OC)c2[C@H](c2cc(OC)c(OC)c(OC)c2)C1C(=O)OC (some centres not stated)
inactive: 786-0 34 µM | NCI-H522 13.5 µM | LOX IMVI 41.1 µM | SNB-78 32.1 µM | XF498 51.8 µM | A498 30.1 µM | NCI-H23 31.2 µM | SK-MEL-28 21.8 µM | HCC 2998 27.6 µM | U-251 36.5 µM | OVCAR-4 32.6 µM | KM12 21.9 µM | HOP-92 9.89 µM | RPMI-8226 28.2 µM | HOP-62 59.8 µM | MOLT-4 22.2 µM | UACC-257 44.4 µM | HL-60 16.8 µM | RXF 393 20.7 µM | HCT-116 37.6 µM | KM-20L2 18.2 µM | SK-MEL-5 12.3 µM | NCI-H460 7.18 µM | DLD-1 45.1 µM | M14 26 µM | SNB-19 38.3 µM | CAKI-1 > 100 µM | RXF 631 41.7 µM | ACHN 46.8 µM | K562 24.5 µM | EKVX 55.5 µM | SN12C 50.8 µM | SF-295 13.6 µM | A549 49.8 µM | OVCAR-5 > 100 µM | SK-OV-3 35 µM | DMS-114 30.6 µM | TK-10 > 100 µM | SNB-75 38.7 µM | UO-31 41.9 µM | Malme-3M 49.3 µM | SF-539 14.2 µM | CCRF-CEM 32.8 µM | NCI-H226 49.3 µM | OVCAR-3 22.9 µM | HT-29 22.8 µM | SW-620 29 µM | SF-268 42.1 µM | COLO 205 15.8 µM | OVCAR-8 36.4 µM | DMS-273 15.8 µM | IGROV-1 36.2 µM | LXFL 529 31.1 µM | UACC-62 14 µM
28.8 µM: HCT-15

[C-]#[N+][C@@H]1C2[C@H](CC[C@@]1(C)O)C(=C)CC[C@@H]2[C@@]1(C)CC[C@H](Cl)C(C)(C)O1 (some centres not stated)
2.55 µM: HCT-15
inactive: 786-0 10.3 µM | NCI-H522 4.42 µM | SK-MEL-2 6.3 µM | LOX IMVI 3.95 µM | XF498 4.71 µM | A498 18.5 µM | NCI-H23 4.75 µM | HOP-18 2.71 µM | SK-MEL-28 26.3 µM | HCC 2998 11.1 µM | U-251 8.87 µM | OVCAR-4 3.24 µM | KM12 3.53 µM | RPMI-8226 2.51 µM | UACC-257 8.32 µM | HL-60 1.92 µM | RXF 393 14 µM | HCT-116 2.23 µM | KM-20L2 6.68 µM | SK-MEL-5 3.02 µM | NCI-H460 8.3 µM | DLD-1 2.88 µM | M14 2.81 µM | SNB-19 7.1 µM | CAKI-1 4.82 µM | RXF 631 6.62 µM | ACHN 4.22 µM | K562 3.24 µM | EKVX 7.14 µM | SN12C 4.38 µM | SF-295 12.1 µM | A549 8.02 µM | M19-MEL 4.12 µM | SK-OV-3 25.4 µM | DMS-114 1.5 µM | TK-10 16.2 µM | SNB-75 7.87 µM | UO-31 2.06 µM | Malme-3M 5.28 µM | SF-539 6.67 µM | CCRF-CEM 2.77 µM | NCI-H226 4.46 µM | OVCAR-3 1.31 µM | HT-29 11.9 µM | SW-620 5.64 µM | SF-268 11 µM | COLO 205 3.2 µM | OVCAR-8 3.29 µM | IGROV-1 3.49 µM | LXFL 529 3.57 µM | UACC-62 3.59 µM

From ChEMBL document CHEMBL1201862, “PubChem BioAssay data set” (2004)
